{
  "source": "patent US20250051260A1",
  "about": "“METHOD FOR PREPARING 4-NITRO-2-(TRIFLUOROMETHYL)ACETOPHENONE AND APPLICATION THEREOF” (MAXUNITECH INC., priority 2022, published 2025)",
  "test_in_all_cases": "Petri dish test for herbicide bioactivity (NY/T 1155.1-2006)",
  "type_in_all_cases": "in vivo",
  "settings_in_all_cases": "7 days after treatment",
  "key": {"Chenopodium album L.": {"system": "Chenopodium album L.", "text": "(§1) Test standard:NY/T 1155.1-2006 Pesticides guidelines for laboratory bioactivity tests. Part 1:Petri dish test for herbicide bioactivity\n(§2) Targets: Echinochloa crusgalli (L.) Beauv, Panicum acroanthum Steud., Solanum nigrum L., Chenopodium album L.\n(§3) Test agent:ethyl 2-(4-nitro-2-trifluoromethylphenyl)-2-cyanopropanoate prepared in Example 1\n(§4) The test agent was weighed and dissolved in DMF to obtain a mother liquor. different amounts of mother liquor were weighed and diluted into water to prepare different doses of the test agent.\n(§5) Test method:Petri dish test\n(§6) 1 test agent, 1 CK (clean water control), 4 targets, and 2 replicate tests per treatment were required. Test method includes the following steps:putting two filter papers on a Petri dish with a diameter of 9 cm; adding 8 mL of the prepared test agent of different concentrations; putting 10 uniform weed seeds; and then placing in an incubator (30° C./25° C., light for 12 h/for dark 12 h). After treatment, the growth state of the test target was regularly observed, the comprehensive growth inhibition rate of each agent was visually investigated with CK about 7 days after the treatment, and the number of seedlings, stem length and root length of plants were measured, and the mergence rate, stem length, and root length and inhibition rate were calculated compared with CK."}, "[1]": {"system": "Panicum acroanthum Steud.", "text": "as §1, §2, §3, §4, §5, §6"}, "[2]": {"system": "Echinochloa crusgalli (L.) Beauv", "text": "as §1, §2, §3, §4, §5, §6"}, "Solanum nigrum L.": {"system": "Solanum nigrum L.", "text": "as §1, §2, §3, §4, §5, §6"}},
  "data": [
    {"smiles": "CCOC(=O)C(C)(C#N)c1ccc([N+](=O)[O-])cc1C(F)(F)F", "note": "(stereo not drawn) [ethyl 2-(4-nitro-2-trifluoromethylphenyl)-2-cyanopropanoate]", "values": [
      {"measurement": "Emergence rate, inhibition rate", "setting": "Chenopodium album L.; agent concentration 100", "value": 63.6, "unit": "%"},
      {"measurement": "Root length, inhibition rate", "setting": "Chenopodium album L.; agent concentration 100", "value": 100.0, "unit": "%"},
      {"measurement": "Stem length, inhibition rate", "setting": "Chenopodium album L.; agent concentration 100", "value": 70.4, "unit": "%"},
      {"measurement": "Emergence rate, inhibition rate", "setting": "Chenopodium album L.; agent concentration 500", "value": 100.0, "unit": "%"},
      {"measurement": "Root length, inhibition rate", "setting": "Chenopodium album L.; agent concentration 500", "value": 100.0, "unit": "%"},
      {"measurement": "Stem length, inhibition rate", "setting": "Chenopodium album L.; agent concentration 500", "value": 100.0, "unit": "%"},
      {"measurement": "Emergence rate, inhibition rate", "setting": "Chenopodium album L.; agent concentration 1000", "value": 100.0, "unit": "%"},
      {"measurement": "Root length, inhibition rate", "setting": "Chenopodium album L.; agent concentration 1000", "value": 100.0, "unit": "%"},
      {"measurement": "Stem length, inhibition rate", "setting": "Chenopodium album L.; agent concentration 1000", "value": 100.0, "unit": "%"},
      {"measurement": "Emergence rate, inhibition rate", "setting": "[1]; agent concentration 500", "value": 100.0, "unit": "%"},
      {"measurement": "Root length, inhibition rate", "setting": "[1]; agent concentration 500", "value": 100.0, "unit": "%"},
      {"measurement": "Stem length, inhibition rate", "setting": "[1]; agent concentration 500", "value": 100.0, "unit": "%"},
      {"measurement": "Emergence rate, inhibition rate", "setting": "[1]; agent concentration 1000", "value": 100.0, "unit": "%"},
      {"measurement": "Root length, inhibition rate", "setting": "[1]; agent concentration 1000", "value": 100.0, "unit": "%"},
      {"measurement": "Stem length, inhibition rate", "setting": "[1]; agent concentration 1000", "value": 100.0, "unit": "%"},
      {"measurement": "Emergence rate, inhibition rate", "setting": "[2]; agent concentration 500", "value": 100.0, "unit": "%"},
      {"measurement": "Root length, inhibition rate", "setting": "[2]; agent concentration 500", "value": 100.0, "unit": "%"},
      {"measurement": "Stem length, inhibition rate", "setting": "[2]; agent concentration 500", "value": 100.0, "unit": "%"},
      {"measurement": "Emergence rate, inhibition rate", "setting": "[2]; agent concentration 1000", "value": 100.0, "unit": "%"},
      {"measurement": "Root length, inhibition rate", "setting": "[2]; agent concentration 1000", "value": 100.0, "unit": "%"},
      {"measurement": "Stem length, inhibition rate", "setting": "[2]; agent concentration 1000", "value": 100.0, "unit": "%"},
      {"measurement": "Emergence rate, inhibition rate", "setting": "Solanum nigrum L.; agent concentration 500", "value": 100.0, "unit": "%"},
      {"measurement": "Root length, inhibition rate", "setting": "Solanum nigrum L.; agent concentration 500", "value": 100.0, "unit": "%"},
      {"measurement": "Stem length, inhibition rate", "setting": "Solanum nigrum L.; agent concentration 500", "value": 100.0, "unit": "%"},
      {"measurement": "Emergence rate, inhibition rate", "setting": "Solanum nigrum L.; agent concentration 1000", "value": 100.0, "unit": "%"},
      {"measurement": "Root length, inhibition rate", "setting": "Solanum nigrum L.; agent concentration 1000", "value": 100.0, "unit": "%"},
      {"measurement": "Stem length, inhibition rate", "setting": "Solanum nigrum L.; agent concentration 1000", "value": 100.0, "unit": "%"}
    ]}
  ]
}
